# Reference: patent US12037344B2, “NLRP3 modulators” (INNATE TUMOR IMMUNITY, INC., priority 2018, dated 2024)
# Counter-ions that a name gives are not always drawn.
# Columns and labels:
# [1] = tested on: THP-1 cells; experiment: Measurement of IL-1β production, hTRF protocol (second alternative procedure), THP-1 cells; format: cell-based, human; settings: Homo sapiens, THP-1, IL-1β production, human cells; read-out: NLRP3 hILIB EC50
# Method in brief: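 Compounds, dilution series starting at a final 10 μM, were incubated 2 hours at 37° C with PMA-differentiated THP-1 cells (50 ng/ml overnight; 50,000 cells/well, 2% FBS RPMI). Released IL-1β quantified in supernatant by hTRF kit with 1:40 antibody dilution, 4° C overnight, 665/615 nm ratio.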
# [2] = biological target: T1, TLR7 (Homo sapiens, UniProt Q9NYK1); experiment: In vitro human TLR7 binding reporter assay (HEK-Blue, NF-kB/AP1-inducible SEAP); format: cell-based; settings: activity range, read-out: TLR7 Agonist EC50
# T1 construct: human HEK-Blue cells co-expressing a TLR7 or TLR8 gene
# T1 sequence (Q9NYK1 27-1049): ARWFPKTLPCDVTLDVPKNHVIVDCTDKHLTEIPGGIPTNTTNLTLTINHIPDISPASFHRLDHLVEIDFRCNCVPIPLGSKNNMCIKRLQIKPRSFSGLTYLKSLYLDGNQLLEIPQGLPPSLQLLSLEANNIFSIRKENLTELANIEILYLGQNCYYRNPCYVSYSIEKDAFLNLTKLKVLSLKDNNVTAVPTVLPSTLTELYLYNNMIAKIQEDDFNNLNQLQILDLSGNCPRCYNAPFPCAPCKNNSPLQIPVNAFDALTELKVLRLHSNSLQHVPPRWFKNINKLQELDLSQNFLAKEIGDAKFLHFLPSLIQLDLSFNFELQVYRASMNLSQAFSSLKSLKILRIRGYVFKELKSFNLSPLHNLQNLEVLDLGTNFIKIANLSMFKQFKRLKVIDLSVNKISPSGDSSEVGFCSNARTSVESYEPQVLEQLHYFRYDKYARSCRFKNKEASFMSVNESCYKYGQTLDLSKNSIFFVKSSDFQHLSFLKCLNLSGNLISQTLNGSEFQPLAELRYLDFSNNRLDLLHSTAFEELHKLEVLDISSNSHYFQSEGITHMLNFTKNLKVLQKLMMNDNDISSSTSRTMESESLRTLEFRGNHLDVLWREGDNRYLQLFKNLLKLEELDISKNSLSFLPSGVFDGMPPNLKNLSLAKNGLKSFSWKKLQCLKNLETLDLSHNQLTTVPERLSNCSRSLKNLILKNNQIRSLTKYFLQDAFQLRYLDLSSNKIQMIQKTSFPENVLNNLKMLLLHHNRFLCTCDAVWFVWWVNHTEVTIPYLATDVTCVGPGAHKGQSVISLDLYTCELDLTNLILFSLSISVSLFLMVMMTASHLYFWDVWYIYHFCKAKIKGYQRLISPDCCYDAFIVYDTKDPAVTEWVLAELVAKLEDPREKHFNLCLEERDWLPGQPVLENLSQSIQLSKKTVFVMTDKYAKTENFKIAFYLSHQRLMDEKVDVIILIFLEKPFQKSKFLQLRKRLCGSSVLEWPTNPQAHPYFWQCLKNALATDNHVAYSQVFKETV
# Method in brief: (§1)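 HEK-Blue cells expressing human TLR7 or TLR8 with NF-kB/AP1-inducible SEAP reporter, plated 24 h, then compound-treated 18 h at 37° C, 5% CO2. EC50 normalized to 100% Ymax set by 50 μM reference standard.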
# [3] = biological target: T2, TLR8 (Homo sapiens, UniProt Q9NR97); experiment: In vitro human TLR8 binding reporter assay (HEK-Blue, NF-kB/AP1-inducible SEAP); format: cell-based; settings: activity range, read-out: TLR8 Agonist EC50
# T2 construct: human HEK-Blue cells co-expressing a TLR7 or TLR8 gene
# T2 sequence (Q9NR97 27-1041): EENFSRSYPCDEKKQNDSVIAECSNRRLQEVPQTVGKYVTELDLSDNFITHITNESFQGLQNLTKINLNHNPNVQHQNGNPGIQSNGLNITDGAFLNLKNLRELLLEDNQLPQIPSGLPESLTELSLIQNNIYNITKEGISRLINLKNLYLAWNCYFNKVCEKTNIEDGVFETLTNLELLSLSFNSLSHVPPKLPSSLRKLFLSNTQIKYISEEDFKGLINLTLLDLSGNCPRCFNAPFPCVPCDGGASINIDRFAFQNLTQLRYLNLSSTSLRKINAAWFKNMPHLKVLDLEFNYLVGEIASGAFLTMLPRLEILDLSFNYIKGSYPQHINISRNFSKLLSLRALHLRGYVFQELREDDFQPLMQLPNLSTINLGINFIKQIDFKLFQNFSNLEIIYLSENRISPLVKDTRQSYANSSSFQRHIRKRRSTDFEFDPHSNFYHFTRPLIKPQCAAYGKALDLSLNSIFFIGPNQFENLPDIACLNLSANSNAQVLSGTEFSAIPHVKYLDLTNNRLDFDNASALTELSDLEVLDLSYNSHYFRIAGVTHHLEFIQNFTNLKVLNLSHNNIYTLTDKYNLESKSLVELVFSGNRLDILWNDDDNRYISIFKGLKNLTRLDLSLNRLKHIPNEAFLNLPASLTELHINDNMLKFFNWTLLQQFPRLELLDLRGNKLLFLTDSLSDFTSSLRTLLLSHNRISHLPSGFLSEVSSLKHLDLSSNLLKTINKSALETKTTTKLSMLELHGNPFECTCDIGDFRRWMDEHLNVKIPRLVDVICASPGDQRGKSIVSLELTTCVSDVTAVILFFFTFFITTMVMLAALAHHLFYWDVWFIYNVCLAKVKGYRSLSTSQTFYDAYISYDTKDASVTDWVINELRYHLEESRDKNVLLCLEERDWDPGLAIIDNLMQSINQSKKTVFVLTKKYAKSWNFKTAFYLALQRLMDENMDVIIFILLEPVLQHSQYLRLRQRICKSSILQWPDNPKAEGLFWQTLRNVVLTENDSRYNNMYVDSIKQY
# Method in brief: as §1
SMILES,EC50 [1],EC50 [2],EC50 [3]
CC(Cn1cc2c(N)nc3cc(-n4cccn4)ccc3c2n1)NC(=O)C(C)(C)F (stereo not drawn) [Example 431],1.23 µM,> 100 µM,> 100 µM
CC(C)(O)Cn1ncc2c(N)nc3cc(-c4cc[nH]n4)ccc3c21 [Example 432],3.19 µM,> 100 µM,> 100 µM
COC1CN(CCn2ncc3c(N)nc4cc(-c5cc[nH]n5)ccc4c32)C1 [Example 435],3.61 µM,> 100 µM,> 100 µM
Nc1nc2cc(-c3cc[nH]n3)ccc2c2c1cnn2CCN1CCOCC1 [Example 436],2.75 µM,> 100 µM,> 100 µM
CN(C)Cc1cc2c(N)nc3cc(-c4ccn[nH]4)ccc3c2[nH]1 [Example 439],0.32 µM,> 100 µM,> 100 µM
Nc1nc2cc(-c3ccn[nH]3)ccc2c2[nH]c(CCCO)cc12 [Example 440],0.13 µM,> 100 µM,> 100 µM
CCn1c(CN)cc2c(N)nc3cc(-c4ccn[nH]4)ccc3c21 [Example 441],1.33 µM,> 100 µM,> 100 µM
Nc1nc2cc(-c3ccn[nH]3)ccc2c2[nH]c(CCO)cc12 [Example 442],0.19 µM,> 100 µM,> 100 µM
CC(=O)NCc1cc2c(N)nc3cc(-n4cccn4)ccc3c2[nH]1 [Example 445],0.66 µM,> 100 µM,> 100 µM
Nc1nc2cc(-n3cccn3)ccc2c2[nH]c(CCCO)cc12 [Example 446],0.2 µM,> 100 µM,> 100 µM
COc1nc(C(=O)NCCc2cc3c(N)nc4cc(-c5ccn[nH]5)ccc4c3[nH]2)cs1 [Example 447],0.38 µM,> 100 µM,> 100 µM
CC(C)(O)Cn1cc2c(n1)c(N)nc1cc(-c3ccn[nH]3)ccc12 [Example 450],0.53 µM,> 100 µM,> 100 µM
CC(O)Cn1cc2c(n1)c(N)nc1cc(-c3ccn[nH]3)ccc12 (stereo not drawn) [Example 451],1.26 µM,> 100 µM,> 100 µM
CC(C)(O)CCn1cc2c(n1)c(N)nc1cc(-c3ccn[nH]3)ccc12 [Example 452],0.4 µM,> 100 µM,> 100 µM
CC(CCO)n1cc2c(n1)c(N)nc1cc(-c3ccn[nH]3)ccc12 (stereo not drawn) [Example 454],0.37 µM,> 100 µM,> 100 µM
Nc1nc2cc(-c3ccn[nH]3)ccc2c2cn(CCO)cc12 [Example 455],0.22 µM,> 100 µM,> 100 µM
CO[C@@H](CO)Cn1cc2c(n1)c(N)nc1cc(-c3cc[nH]n3)ccc12 [Example 459],0.27 µM,> 100 µM,> 100 µM
N#CCCCCn1cc2c(N)nc3cc(-c4cc[nH]n4)ccc3c2n1 [Example 460],0.2 µM,> 100 µM,> 100 µM
N#CC1(Cn2cc3c(N)nc4cc(-c5cc[nH]n5)ccc4c3n2)CC1 [Example 464],0.24 µM,> 100 µM,> 100 µM
CCS(=O)(=O)N[C@@H](C)Cn1cc2c(N)nc3cc(-c4cc[nH]n4)ccc3c2n1 [Example 465],1.9 µM,> 100 µM,> 100 µM
N#CCC1(Cn2cc3c(N)nc4cc(-c5cc[nH]n5)ccc4c3n2)CC1 [Example 466],0.61 µM,> 100 µM,> 100 µM

# The next lines start with the values.
EC50 [1],EC50 [2],EC50 [3],SMILES
4.58 µM,> 100 µM,> 100 µM,Nc1nc2cc(-n3cccn3)ccc2c2nn(CC3COCCN3)cc12 (stereo not drawn) [Example 433]
4.35 µM,> 100 µM,> 100 µM,COC1CCN(CCn2ncc3c(N)nc4cc(-c5cc[nH]n5)ccc4c32)C1 (stereo not drawn) [Example 434]
0.56 µM,> 100 µM,> 100 µM,NCc1cc2c(N)nc3cc(-n4cccn4)ccc3c2[nH]1 [Example 437]
0.99 µM,> 100 µM,> 100 µM,NCc1cc2c(N)nc3cc(-c4ccn[nH]4)ccc3c2[nH]1 [Example 438]
0.23 µM,> 100 µM,> 100 µM,CC(=O)NCc1cc2c(N)nc3cc(-c4ccn[nH]4)ccc3c2[nH]1 [Example 443]
0.26 µM,> 100 µM,> 100 µM,CCn1c(CN(C)C)cc2c(N)nc3cc(-c4ccn[nH]4)ccc3c21 [Example 444]
1.78 µM,> 100 µM,> 100 µM,CCn1c(CNC(C)=O)cc2c(N)nc3cc(-n4cccn4)ccc3c21 [Example 448]
0.7 µM,> 100 µM,> 100 µM,CCn1c(CCCO)cc2c(N)nc3cc(-c4ccn[nH]4)ccc3c21 [Example 449]
0.31 µM,> 100 µM,> 100 µM,CC(CO)n1cc2c(n1)c(N)nc1cc(-c3ccn[nH]3)ccc12 (stereo not drawn) [Example 453]
0.23 µM,> 100 µM,> 100 µM,COCCn1cc2c(N)nc3cc(-c4ccn[nH]4)ccc3c2c1 [Example 456]
0.16 µM,> 100 µM,> 100 µM,"Nc1nc2cc(-c3cc[nH]n3)ccc2c2n[nH]cc12 [Example 457, 7-(1H-pyrazol-3-yl)-2H-pyrazolo[4,3-c]quinolin-4-amine]"
0.16 µM,> 100 µM,> 100 µM,"CN(C)C(=O)Cn1cc2c(N)nc3cc(-c4cc[nH]n4)ccc3c2n1 [Example 458, 2-(4-amino-7-(1H-pyrazol-5-yl)-2H-pyrazolo[4,3-c]quinolin-2-yl)-N,N-dimethylacetamide.TFA]"
0.25 µM,> 100 µM,> 100 µM,CNC(=O)Cn1cc2c(N)nc3cc(-c4cc[nH]n4)ccc3c2n1 [Example 461]
0.22 µM,> 100 µM,> 100 µM,NC(=O)CCn1cc2c(N)nc3cc(-c4cc[nH]n4)ccc3c2n1 [Example 462]
0.13 µM,> 100 µM,> 100 µM,CS(=O)(=O)CCn1cc2c(N)nc3cc(-c4cc[nH]n4)ccc3c2n1 [Example 463]
0.94 µM,> 100 µM,> 100 µM,Cc1nc(C(=O)NC(C)(C)Cn2cc3c(N)nc4cc(-c5cc[nH]n5)ccc4c3n2)co1 [Example 467]
1.62 µM,> 100 µM,> 100 µM,Cc1c(CN2CCOCC2)[nH]c2c1c(N)nc1cc(-c3cc[nH]n3)ccc12 [Example 468]
